Experimental findings from patent publication US6365616B1, “Methimazole derivatives and tautomeric cyclic thiones to treat autoimmune diseases” (Sentron Medical, Inc., priority 1998, dated 2002) are described below.

Like-named read-outs stand apart in the source and are kept apart here.

For this assay, the system named is swine class I promoter (PD1). The assay can be described thus: Transient transfection CAT assay, class I promoter chimeras in FRTL-5 cells. The assay is classed as cell-based. The conditions noted are these: for inhibition at 10 µM / inhibition at 25 µM / inhibition at 100 µM / inhibition at 1000 µM / inhibition at 5000 µM: Sus scrofa; for CAT activity +γIFN (100 U/ml) + MMI (5 mM) / CAT activity +γIFN (100 U/ml): 5H medium. From the text:
The full length PD1 promoter, PD1 CAT construct pH […], inserted into the multicloning site of pSV3CAT, has been previously described (Erhlich, R. et al. Immunogenetics 30:18-26 (1989)). […] The deletion series was also cloned into the pSV3CAT reporter construct to assess promoter activities (Weisman J D, et al. ibid (1991); Maguire, J. et al., Mol. Cell. Biol., 12:3078-3086 (1992)). […] The number denotes the most 5′-residue in the 5′-flanking region of the PD1 promoter.
FRTL-5 rat thyroid cells (Interthyr Research Foundation, Baltimore, Md.; ATCC CRL8305) were the same subclone (F1) used in the gel shift experiments described earlier. They were grown in the following medium: Coon's modified F-12 medium containing 5% heat-treated, mycoplasma-free calf serum, 1 mM nonessential amino acids, and a mixture of six hormones (6H) containing bovine TSH (1×10^−10M), insulin (10 μg/ml), cortisol (0.4 ng/ml), transferrin (5 μg/ml), glycyl-L-histidyl-L-lysine acetate (10 ng/ml), and somatostatin (10 ng/ml). Cells were diploid and between their 5th and 25th passage. Fresh medium was added every 2 or 3 days and cells were passaged every 7-10 days. In some experiments, cells were grown to near confluency in 6H medium then maintained for 5-8 days, before experiments were initiated, in 5H medium with no TSH.
To measure the promoter activity of MHC class I promoter constructs, as reported by CAT activity, two procedures were used. In one, rat FRTL-5 thyroid cells were transfected by the electroporation method described previously (Saji, M., et al., ibid (1992b); Giuliani, C., et al., ibid (1995); Saji, M., et al., ibid (1997)). In brief, FRTL-5 cells were grown to 80% confluence, put in fresh 6H medium containing 5% calf serum for 12 hours, harvested, washed and suspended at 1.5×10^7 cells/mil in 0.8 ml electroporation buffer (272 mM sucrose, 7 mM sodium phosphate at pH 7.4, and 1 mM MgCl2). Twenty μg of the full-length CAT construct were added with 5 μg pSVGH. Cells were then pulsed (330 volts, capacitance 25 μfarad), plated (approximately 6×10^6 cell/dish), and cultured for 12 hours in 6H medium containing 5% calf serum. […] After 48 hours they were harvested. […] Medium was taken for hGH radioimmunoassay to monitor transfection efficiency (Nichols Institute, San Juan Capistrano, Calif.) and cells were harvested for CAT assays which used 20-50 μg cell lysate in a final volume of 130 μl. Incubation was at 37° C. for 2 or 4 hours; acetylated chloramphenicol was separated by thin layer chromatograpy (TLC) and positive spots on TLC plates were cut out and quantitated in a scintillation spectrometer. CAT activity was normalized to GH activity and/or cell protein before data were compared.
Alternatively transient transfections used the same class I-CAT chimeras and a DEAE-dextran procedure (Lopata M A, et al., Nucleic Acids Res. 12:5707-5717 (1984); Giuliani C, et al., ibid (1995)). Cells were grown to near (80%) confluency in 6H medium, shifted to 5H medium for 1 day, washed twice with Dulbecco's modified phosphate buffered saline (DPBS), pH 7.4, and incubated 1 hour with 5 ml serum-free 5H medium containing the plasmid DNA plus 250 μg DEAE-dextran (5 Prime-3 Prime, Inc.). Cells were then exposed to 10% dimethylsulfoxide in DPBS for 3 min., washed twice in DPBS, cultured in 5H medium for 24 hours, then maintained therein another 48 hours with or without MMI, MMI derivatives or tautomeric cyclic thiones, as noted. Efficiency of transfection was determined by cotransfection as above or with 5 μg pRSVLuc (De Wet J R, et al., Mol. Cell. Biol. 7:725-737 (1987)).
In this experiment, FRTL-5 cells were grown to near confluency in 6H medium (plus TSH) and then were maintained in 5H medium (no TSH) for 7 days before being treated with γ-IFN or γ-IFN plus MMI for 40 hours. Control cells were those maintained in 5H medium for the same 40 hours. CAT activity was measured as described above.

The mark [1] stands for this setting: FRTL-5, 10 μM, 100 U/ml γ-interferon, 6H medium, 40 hours, read-out: % inhibition of IFN-increased p(−203)CAT class I promoter activity.
Where [2] appears, read: FRTL-5, 25 μM, 6H medium, 36 hours, read-out: % inhibition of basal p(−203)CAT class I promoter activity.
The mark [3] stands for this setting: FRTL-5, 100 μM, 6H medium, 36 hours, read-out: % inhibition of basal p(−203)CAT class I promoter activity.
[4] abbreviates: FRTL-5, 100 μM, 100 U/ml γ-interferon, 6H medium, 40 hours, read-out: % inhibition of IFN-increased p(−203)CAT class I promoter activity.
The mark [5] stands for this setting: FRTL-5, 1.0 mM, 6H medium, 36 hours, read-out: % inhibition of basal p(−203)CAT class I promoter activity.
Setting [6] is: FRTL-5, 1.0 mM, 100 U/ml γ-interferon, 6H medium, 40 hours, read-out: % inhibition of IFN-increased p(−203)CAT class I promoter activity.
Setting [7] is: FRTL-5, 5 mM, 6H medium, 36 hours, read-out: % inhibition of basal p(−203)CAT class I promoter activity.
The mark [8] stands for this setting: FRTL-5, 5 mM, 100 U/ml γ-interferon, 6H medium, 40 hours, read-out: % inhibition of IFN-increased p(−203)CAT class I promoter activity.
The mark [9] stands for this setting: 10 μM, 100 U/ml γ-interferon, 6H medium, 40 hours.
The mark [10] stands for this setting: 100 μM, 100 U/ml γ-interferon, 6H medium, 40 hours.
Where [11] appears, read: 1.0 mM, 100 U/ml γ-interferon, 6H medium, 40 hours.
[12] abbreviates: 5 mM, 100 U/ml γ-interferon, 6H medium, 40 hours.
Where [13] appears, read: FRTL-5, read-out: % inhibition of IFN-increased p(−203)CAT class I promoter activity.
The mark [14] stands for this setting: FRTL-5, read-out: % inhibition of basal p(−203)CAT class I promoter activity.

Usually inhibition stands for the change of the read-out against control, counted positive when it falls.

On to `Cn1ccnc1S` [Compound 1, 1-Methylimidazole-2-thiol], for which the inhibition at 10 µM under setting [1] stood at 0%. Also, the inhibition at 25 µM under setting [2] stood at 0%. The inhibition at 100 µM under setting [3] turned out to be 0% and the inhibition at 100 µM under setting [4] was determined as 0%. In addition, the inhibition at 1000 µM reads like this: under setting [5], 32 ± 7%; under setting [6], 35 ± 8%. Also, the inhibition at 5000 µM runs as follows: under setting [7], 74 ± 10%; under setting [8], 72 ± 12%. The “CAT activity +γIFN (100 U/ml) + MMI (5 mM)” value runs as follows: (chimera p(−127), 40 hours) 55 ± 4 % of Control; (chimera p(−203), 40 hours) 95 ± 26 % of Control; (chimera p(−1100), 40 hours) 163 ± 48 % of Control; (pSV0 control plasmid, 40 hours) 38 ± 9 % of Control.
In the case of `Cc1ncc([N+](=O)[O-])n1CCO` [Compound 2, 2-Methyl-5-nitro-1-imidazole ethanol], the inhibition at 10 µM under setting [1] came to 0%. Moreover, under setting [2], the inhibition at 25 µM came out at 0%. In addition, the inhibition at 100 µM worked out at 10 ± 8% under setting [3] and 0% under setting [4]. The inhibition at 1000 µM under setting [5] was found to be 37 ± 11% and the inhibition at 1000 µM under setting [6] was found to be 45 ± 5%. The inhibition at 5000 µM is 74 ± 9% under setting [7] and 84 ± 13% under setting [8].
As for `Sc1ncc[nH]1` [Compound 3, 2-Mercaptoimidazole], the “% inhibition of IFN-increased p(−203)CAT class I promoter activity” value is “None” under setting [9], “None” under setting [10], “None” under setting [11] and “None” under setting [12].
`Sc1nc2ccccc2[nH]1` [Compound 4, 2-Mercaptobenzimidazole]: under setting [13], the inhibition at 10 µM amounted to 0%, the inhibition at 100 µM worked out at 0%, the inhibition at 1000 µM was 40 ± 8% and the inhibition at 5000 µM was found to be 76 ± 10%. Further, under setting [14], the inhibition at 25 µM is 0%, the inhibition at 100 µM was 0%, the inhibition at 1000 µM came out at 50 ± 12% and the inhibition at 5000 µM was determined as 90 ± 14%.
As to `O=[N+]([O-])c1ccc2[nH]c(S)nc2c1` [Compound 5, 2-Mercapto-5-nitrobenzimidazole], the inhibition at 5000 µM runs as follows: under setting [7], 45 ± 8%; under setting [8], 43 ± 9%.
With `Cc1ccc2[nH]c(S)nc2c1` [Compound 6, 2-Mercapto-5-methylbenzimidazole], the inhibition at 5000 µM reads like this: under setting [7], 57 ± 13%; under setting [8], 49 ± 7%.
For `CSc1nccn1C` [Compound 7, S-Methylmethimazole], the inhibition at 10 µM under setting [1] is 0%. In addition, under setting [2], the inhibition at 25 µM was found to be 0%. The inhibition at 100 µM was 10 ± 9% under setting [3] and 14 ± 11% under setting [4]. Besides, the inhibition at 1000 µM turned out to be 51 ± 6% under setting [5] and 50 ± 13% under setting [6]. Further, the inhibition at 5000 µM amounted to 68 ± 8% under setting [7] and 58 ± 12% under setting [8].
For the molecule `Cn1ccn(C)c1=S` [Compound 8, N-Methylmethimazole], the “% inhibition of IFN-increased p(−203)CAT class I promoter activity” value reads like this: under setting [9], 0%; under setting [10], 38 ± 9%; under setting [11], 69 ± 7%; under setting [12], 77 ± 14%. The “% inhibition of basal p(−203)CAT class I promoter activity” value reads like this: (25 μM, 6H medium, 36 hours) 5 ± 5%; (100 μM, 6H medium, 36 hours) 48 ± 10%; (1.0 mM, 6H medium, 36 hours) 72 ± 6%; (5 mM, 6H medium, 36 hours) 87 ± 11%.
For `Cc1cnc(S)n1C` [Compound 9, 5-Methylmethimazole], the inhibition at 10 µM under setting [1] worked out at 0%. Besides, under setting [2], the inhibition at 25 µM amounted to 0%. Further, the inhibition at 100 µM runs as follows: under setting [3], 0%; under setting [4], 0%. The inhibition at 1000 µM under setting [5] was 14 ± 10% and the inhibition at 1000 µM under setting [6] stood at 10 ± 10%. Besides, the inhibition at 5000 µM runs as follows: under setting [7], 25 ± 7%; under setting [8], 29 ± 11%.
As for `Cn1c(-c2ccccc2)cnc1S` [Compound 10, 5-Phenylmethimazole], under setting [1], the inhibition at 10 µM was determined as 35 ± 10%. In addition, the inhibition at 25 µM under setting [2] was 45 ± 9%. The inhibition at 100 µM reads like this: under setting [3], 71 ± 6%; under setting [4], 81 ± 14%. Besides, the inhibition at 1000 µM is, setting by setting: under setting [5], 92 ± 12%; under setting [6], 90 ± 13%.

B1: γ-IFN: rat recombinant γ-interferon, 100 U/ml, used to increase MHC class I and class II expression in FRTL-5 cells (protein, UniProt P01581 23-156, looked up)
Interferon gamma: QGTLIESLESLKNYFNSSSMDAMEGKSLLLDIWRNWQKDGNTKILESQIISFYLRLFEVLKDNQAISNNISVIESHLITNFFSNSKAKKDAFMSIAKFEVNNPQIQHKAVNELIRVIHQLSPESSLRKRKRSRC
B1: the “CAT activity +γIFN (100 U/ml)” value was 500 ± 27 % of Control (chimera p(−127), 40 hours); 750 ± 25 % of Control (chimera p(−203), 40 hours); 460 ± 40 % of Control (chimera p(−1100), 40 hours); 48 ± 7 % of Control (pSV0 control plasmid, 40 hours).
